This is an account of results in patent US11851411B2, “Herbicidal compounds” (SYNGENTA CROP PROTECTION AG, priority 2018, dated 2023).

Common to all, as to type: in vivo
In test [1] the test system is Abutilon theophrasti (ABUTH). The experiment in a line: Glasshouse herbicide test, post-emergence. The conditions noted are these: POST Application; 500 g/h; evaluated after 13 days. The protocol: (§1) Seeds of a variety of test species are shown in standard soil in pots (Lolium perenne (LOLPE), Amaranthus retoflexus (AMARE), Abutilon theophrasti (ABUTH), Setaria faberi (SETFA), Echinochloa crus-galli (ECHCG), Ipomoea hederacea (IPOHE)). After cultivation for one day (pre-emergence) or after 8 days cultivation (post-emergence) under controlled conditions in a glasshouse (at 24/16° C., day/night; 14 hours light; 65% humidity), the plants are sprayed with an aqueous spray solution derived from the formulation of the technical active ingredient in acetone/water (50:50) solution containing 0.5% Tween 20 (polyoxyethelyene sorbitan monolaurate, CAS RN 9005-64-5). Compounds are applied at 500 g/h. The test plants are then grown in a glasshouse under controlled conditions in a glasshouse (at 24/16° C., day/night; 14 hours light; 65% humidity) and watered twice daily. After 13 days for pre and post-emergence, the test is evaluated for the percentage damage caused to the plant. The biological activities are shown in the following table on a five point scale (5=80-100%; 4=60-79%; 3=40-59%; 2=20-39%; 1=0-19%).

Test [2] deals with Amaranthus retoflexus (AMARE). The experiment in a line: Glasshouse herbicide test, post-emergence. The following applies: POST Application; 500 g/h; evaluated after 13 days. The protocol:
as §1

Test [3] has as its system Echinochloa crus-galli (ECHCG). The experiment in a line: Glasshouse herbicide test, post-emergence. The following applies: POST Application; 500 g/h; evaluated after 13 days. As for the experimental part:
as §1

Test [4] deals with Ipomoea hederacea (IPOHE). The experiment in a line: Glasshouse herbicide test, post-emergence. The conditions noted are these: POST Application; 500 g/h; evaluated after 13 days. As for the experimental part: as §1
For test [5], the system named is Setaria faberi (SETFA). The experiment in a line: Glasshouse herbicide test, post-emergence. The conditions noted are these: POST Application; 500 g/h; evaluated after 13 days. As for the experimental part:
as §1

In test [6] the test system is Abutilon theophrasti (ABUTH). The experiment in a line: Glasshouse herbicide test, pre-emergence. The following applies: PRE Application; 500 g/h; evaluated after 13 days. As for the experimental part:
as §1

Test [7] has as its system Amaranthus retoflexus (AMARE). The experiment in a line: Glasshouse herbicide test, pre-emergence. The following applies: PRE Application; 500 g/h; evaluated after 13 days. As for the experimental part:
as §1

Test [8] has as its system Echinochloa crus-galli (ECHCG). The experiment in a line: Glasshouse herbicide test, pre-emergence. The following applies: PRE Application; 500 g/h; evaluated after 13 days. As for the experimental part: as §1
Test [9] concerns Ipomoea hederacea (IPOHE). The experiment in a line: Glasshouse herbicide test, pre-emergence. The following applies: PRE Application; 500 g/h; evaluated after 13 days. The protocol:
as §1

The subject of test [10] is Setaria faberi (SETFA). The experiment in a line: Glasshouse herbicide test, pre-emergence. The following applies: PRE Application; 500 g/h; evaluated after 13 days. The protocol:
as §1

For `CCC(=O)N(OC)c1c(C(F)(F)F)ccc(C(=O)Nc2nnc(C)o2)c1Cl` [Compound 2.018], the “percentage damage caused to the plant, five point scale, ABUTH” value (from here on “percentage damage caused … ABUTH”) in [1] and in [6] was 5 (5=80-100%) each time. The “percentage damage caused to the plant, five point scale, AMARE” value (from here on “percentage damage caused … AMARE”) in [2] and in test [7] was 5 (5=80-100%) throughout. The “percentage damage caused to the plant, five point scale, ECHCG” value (from here on “percentage damage caused … ECHCG”) in test [3] and in [8] was 5 (5=80-100%) each time. The results for the “percentage damage caused to the plant, five point scale, IPOHE” value (from here on “percentage damage caused … IPOHE”) in test [4] and in test [9] were 5 (5=80-100%) and 4 (4=60-79%), respectively. For the same compound, the “percentage damage caused to the plant, five point scale, SETFA” value (from here on “percentage damage caused … SETFA”) with Setaria faberi (SETFA) [5] and with Setaria faberi (SETFA) [10] was 5 (5=80-100%) each time.
Turning to `CON(C)c1c(C(F)(F)F)ccc(C(=O)Nc2nnnn2C)c1Cl` [Compound 1.037], the “percentage damage caused … ABUTH” value in test [1] and in [6] was 5 (5=80-100%) throughout. The “percentage damage caused … AMARE” value in test [2] and in [7] was 5 (5=80-100%) each time. For the same compound, the “percentage damage caused … ECHCG” value in test [3] and in [8] was 5 (5=80-100%) throughout. For the same compound, the “percentage damage caused … IPOHE” value in test [4] and in [9] was 5 (5=80-100%) throughout. For the same compound, the “percentage damage caused … SETFA” value in the test on Setaria faberi (SETFA) [5] and with Setaria faberi (SETFA) [10] was 5 (5=80-100%) in each case.
Regarding `CCCn1nnnc1NC(=O)c1ccc(S(C)(=O)=O)c(N(OC)C(C)=O)c1Cl` [Compound 1.009, 3-[acetyl(methoxy)amino]-2-chloro-4-methylsulfonyl-N-(1-propyltetrazol-5-yl)benzamide], the “percentage damage caused … ABUTH” value in test [1] and in [6] was 5 (5=80-100%) each time. For the same compound, the “percentage damage caused … AMARE” value in [2] and in test [7] was 5 (5=80-100%) throughout. The “percentage damage caused … ECHCG” value in [3] and in test [8] was 5 (5=80-100%) in each case. Besides, the “percentage damage caused … IPOHE” value in test [4] and in test [9] was 5 (5=80-100%) throughout. In addition, the “percentage damage caused … SETFA” value is recorded as 5 (5=80-100%) in the test with Setaria faberi (SETFA) [5] and 4 (4=60-79%) with Setaria faberi (SETFA) [10].
For `CON(C(=O)C(C)(C)C)c1c(C(F)(F)F)ccc(C(=O)Nc2nnnn2C)c1F` [Compound 1.063], the “percentage damage caused … ABUTH” value in test [1] and in test [6] was 5 (5=80-100%) throughout. The “percentage damage caused … AMARE” value in test [2] and in test [7] was 5 (5=80-100%) each time. Further, the “percentage damage caused … ECHCG” value in [3] and in test [8] was 5 (5=80-100%) in each case. For the same compound, the results for the “percentage damage caused … IPOHE” value in test [4] and in [9] were 4 (4=60-79%) and 2 (2=20-39%), respectively. For the same compound, the “percentage damage caused … SETFA” value with Setaria faberi (SETFA) [5] and in the test on Setaria faberi (SETFA) [10] was 5 (5=80-100%) throughout.
